Results published in article PMC9409043, “Serotonin 5-HT6 Receptor Ligands and Butyrylcholinesterase Inhibitors Displaying Antioxidant Activity—Design, Synthesis and Biological Evaluation of Multifunctional Agents against Alzheimer’s Disease” (International Journal of Molecular Sciences, 2022).
Where “and” joins values, the source holds several entries; their conditions need not be identical. Equal entries are not always repeated.

Tests used:
[1] = target: T1, human recombinant AChE (hAChE) (Homo sapiens, UniProt P22303); test: biochemical; conditions: for IC50: mean ± SEM of at least three experiments
T1 construct: purchased Sigma-Aldrich (Steinheim, Germany)
Experimental: (§1) 5-HT6R binding affinity and cholinesterase (AChE/BuChE) inhibitory activity. […] Their affinities for recombinant human 5-HT6 receptors (h5-HT6R) were tested in a radioligand binding assay and the inhibitory potencies against human recombinant AChE (hAChE) and BuChE isolated from human plasma (hBuChE) in the spectrophotometric Ellman’s assay.
(§2) The assay was based on spectrophotometric Ellman’s method and was performed in 96-well microplates with the reagents purchased from Sigma-Aldrich (Steinheim, Germany) according to the previously described procedure. hBuChE was kindly donated by Vivonics (Bedford, MA, USA). […] After 5 minutes of the enzymatic reaction, the changes in absorbance were measured at 412 nm, using a microplate reader (SPECTROstar Nano; BMG Labtech, Ortenberg, Germany). First, compounds were tested at the screening concentration of 10 µM. Based on the equation 100 − (S/B) × 100 (where S and B were the respective enzyme activities with and without the test sample, respectively) the percentage inhibition of each enzyme for each compound was calculated. […] The IC50 values were calculated using nonlinear regression (GraphPad Prism 5; GraphPad Software, San Diego, CA, USA) by plotting the residual enzyme activities against the applied inhibitor concentration. […] All experiments were performed in triplicate.

[2] = ABTS free radical scavenging assay
Source text: Antioxidant activity. As mentioned before, oxidative stress is one of the components of AD pathomechanism and is characterised by an imbalance in the production of ROS. One of the mechanisms by which antioxidants reduce the concentration of ROS and therefore prevent or slow the cell damage caused by free radicals is scavenging them. Thus, we tested the scavenging ability of compounds 12–19 in the spectrophotometric ABTS assay that we used before. In this assay, the ability of compounds to scavenge ABTS^• radicals, which are generated from 2,2’-azino-bis(3-ethylbenzothiazoline-6-sulphonic acid) (ABTS), is measured. We tested the compounds at three concentrations: 30, 75 and 150 μM after 5, 30 and 60 min of incubation using Trolox, a water-soluble vitamin E analogue, as a reference (Table S1 in Supporting information).
The spectrophotometric ABTS assay was performed in 96-well microplates with the reagents purchased from Sigma-Aldrich (Steinheim, Germany) according to the previously described procedure. Stock solutions of the tested compounds (6.4 mM) and reagents were prepared in DMSO and water, respectively. 2,2′-Azino-bis(3-ethylbenzothiazoline-6-sulfonic acid) free radical (ABTS^•) was prepared by mixing the stock solution of ABTS (7 mM) and […] (2.45 mM) in ratio 1:1. The mixture was kept in the dark at 4 °C for 16 h. The obtained solution of (ABTS^•) was diluted with water 20 times. Then, the test compound or water or mixture of DMSO/water in the appropriate ratio (0.02 mL) was added to ABTS^• solution (0.18 mL). The three concentrations of the test compounds and Trolox were tested in triplicate: 0.15, 0.075 and 0.03 mM. Changes in absorbance were measured at 734 nm after 5, 30 and 60 min, using a microplate reader (SPECTROstar Nano; BMG Labtech, Ortenberg, Germany). Based on the equation ((A0 − A)/A0) × 100% (where A0 and A were the absorbances without and with the test compound, respectively) the percentage of free radical scavenging activity was calculated. The results are presented as mean ± SD.

[3] = target: T2, BuChE isolated from human plasma (hBuChE) (Homo sapiens, UniProt P06276); test: biochemical; format: biochemical; conditions: for IC50: mean ± SEM of at least three experiments
T2 construct: BuChE isolated from human plasma (hBuChE); tissue Vivonics (Bedford, MA, USA), donated; host or cells: human plasma
Experimental: as §1, §2

[4] = target: T3, human 5-HT6 receptor (Homo sapiens, UniProt P50406); test: 5-HT6 receptor radioligand binding assay ([3H]-LSD, CHO-K1 membranes)
T3 construct: purchased PerkinElmer; host or cells: CHO-K1 cells, stably transfected (membrane preparation)
Experimental: 5-HT6R binding affinity and cholinesterase (AChE/BuChE) inhibitory activity. We evaluated the pharmacological properties of the final compounds 12–19 in vitro according to the previously described, well-established protocols. Their affinities for recombinant human 5-HT6 receptors (h5-HT6R) were tested in a radioligand binding assay and the inhibitory potencies against human recombinant AChE (hAChE) and BuChE isolated from human plasma (hBuChE) in the spectrophotometric Ellman’s assay. […].
We prepared 10 mM of stock solutions of tested compounds in DMSO. Serial dilutions of compounds were prepared in a 96-well microplate in assay buffers using the automated pipetting system epMotion 5070 (Eppendorf). Each compound was tested in 8 concentrations from 10^−5 to 10^−12 M (final concentration).
The radioligand binding assay was performed using membranes from CHO-K1 cells stably transfected with the human 5-HT6 receptor (PerkinElmer) according to the previously described procedure. All assays were carried out in duplicates. We prepared 50 µL working solution of the tested compounds, 50 µL [^3H]-LSD (final concentration 2.5 nM) and 150 µL diluted membranes (15 µg protein per well) in assay buffer (50 mM Tris, pH 7.4, 10 mM MgCl2, 0.1 mM EDTA) and transferred them to polypropylene 96-well microplates using a 96-well pipetting station Rainin Liquidator (MettlerToledo). Methiothepin (10 μM) was used to define nonspecific binding. The microplate was covered with sealing tape, mixed and incubated for 60 min at 27 °C. The reaction was terminated by rapid filtration through GF/B filter mate presoaked with 0.5% polyethyleneimine for 30 min. Ten rapid washes with 200 µL 50 mM Tris buffer (4 °C, pH 7.4) were performed using the automated harvester system Harvester-96 MACH III FM (Tomtec). The filter mates were dried at 37 °C in a forced air fan incubator and then solid scintillator MeltiLex was melted on filter mates at 90 °C for 5 min. Radioactivity was counted in MicroBeta2 scintillation counter (PerkinElmer). Data were fitted to a one-site curve-fitting equation with Prism 6 (GraphPad Software) and Ki values were estimated from the Cheng−Prusoff equation.

[5] = Metabolic stability in human liver microsomes; format: in vitro ADME
Experimental: Metabolic stability. […] For detailed results, including UPLC chromatograms and MS spectra, see the Supporting information (Figures S1–S16).
The metabolic stability was evaluated by incubation of compounds with human liver microsomes (Sigma-Aldrich, St. Louis, MO, USA) in 10 mM Tris–HCl buffer (pH 7.4) at 37 °C for 120 min in the presence of NADPH Regeneration System (Promega, Madison, WI, USA). The percentage of the remaining substrate and the most probable metabolic pathways were estimated by UPLC-MS analyses of the reaction mixtures.

[6] = Metabolic stability in mouse liver microsomes; format: in vitro ADME; conditions: 2 h, pH 7.4
[7] = target: T4, CYP2D6 (Homo sapiens, UniProt P10635); test: CYP P450-Glo luminescence assay, CYP2D6; format: in vitro ADME; conditions: human, CYP2D6 enzyme in the luminescent P450-Glo assay (Promega); 0.1 µM
T4 construct: purchased Promega, Madison, WI, USA
Source text: Influence on CYP3A4 and CYP2D6 activity. Possible drug–drug interactions (DDIs) are an important issue for elderly patients, who are usually on multiple medications. They may result, among other things, from the interactions (inhibition or activation) of the cytochrome P450 isoenzymes, especially CYP3A4 and CYP2D6, which play the most significant role in drugs’ biotransformation. Therefore, to predict the potential influence of the studied compounds (14, 16 and 19) on the metabolism of other drugs, we used the CYP450 inhibition luminescence assay (Promega). […]. […] […]. […] […].
The influence on CYP 3A4 and 2D6 activity was estimated by respective luminescent CYP P450-Glo™ assay (Promega®, Madison, WI, USA). The compounds were tested in the concentration range of 0.1–25 µM. The results were compared to the respective reference CYP inhibitors: ketoconazole and quinidine.

[8] = tested on: patients with moderate Alzheimer’s dementia; conditions: phase II, adjunct to cholinesterase inhibitors, moderate Alzheimer’s dementia ref 14, 15; cited from earlier work

T2 sequence (P06276 29-602): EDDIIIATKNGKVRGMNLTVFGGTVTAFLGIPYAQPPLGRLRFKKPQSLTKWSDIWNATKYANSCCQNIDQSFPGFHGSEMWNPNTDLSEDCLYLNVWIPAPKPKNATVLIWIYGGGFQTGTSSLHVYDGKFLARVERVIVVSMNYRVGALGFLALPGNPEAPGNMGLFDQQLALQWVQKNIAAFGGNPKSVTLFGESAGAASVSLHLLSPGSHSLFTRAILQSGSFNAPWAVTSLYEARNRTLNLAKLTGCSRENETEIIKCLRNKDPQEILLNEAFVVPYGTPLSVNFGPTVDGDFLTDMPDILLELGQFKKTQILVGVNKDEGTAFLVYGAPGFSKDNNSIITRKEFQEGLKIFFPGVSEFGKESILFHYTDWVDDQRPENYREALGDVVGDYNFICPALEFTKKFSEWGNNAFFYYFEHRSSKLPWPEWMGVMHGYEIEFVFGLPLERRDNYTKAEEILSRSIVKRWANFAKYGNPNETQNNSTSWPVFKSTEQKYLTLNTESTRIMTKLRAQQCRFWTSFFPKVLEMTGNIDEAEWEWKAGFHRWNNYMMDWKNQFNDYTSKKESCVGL
T3 sequence (P50406 whole entry): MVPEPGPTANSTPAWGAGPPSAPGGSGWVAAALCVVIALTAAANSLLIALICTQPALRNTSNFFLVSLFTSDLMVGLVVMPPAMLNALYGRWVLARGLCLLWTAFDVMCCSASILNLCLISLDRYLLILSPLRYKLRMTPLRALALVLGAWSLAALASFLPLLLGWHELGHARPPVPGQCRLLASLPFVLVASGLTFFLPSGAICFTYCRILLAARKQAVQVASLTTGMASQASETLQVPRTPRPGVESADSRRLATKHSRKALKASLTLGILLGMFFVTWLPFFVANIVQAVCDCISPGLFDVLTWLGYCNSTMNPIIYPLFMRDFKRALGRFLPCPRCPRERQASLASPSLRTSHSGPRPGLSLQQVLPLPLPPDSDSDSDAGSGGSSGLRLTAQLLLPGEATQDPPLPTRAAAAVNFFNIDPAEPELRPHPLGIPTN
T1 sequence (P22303 32-614): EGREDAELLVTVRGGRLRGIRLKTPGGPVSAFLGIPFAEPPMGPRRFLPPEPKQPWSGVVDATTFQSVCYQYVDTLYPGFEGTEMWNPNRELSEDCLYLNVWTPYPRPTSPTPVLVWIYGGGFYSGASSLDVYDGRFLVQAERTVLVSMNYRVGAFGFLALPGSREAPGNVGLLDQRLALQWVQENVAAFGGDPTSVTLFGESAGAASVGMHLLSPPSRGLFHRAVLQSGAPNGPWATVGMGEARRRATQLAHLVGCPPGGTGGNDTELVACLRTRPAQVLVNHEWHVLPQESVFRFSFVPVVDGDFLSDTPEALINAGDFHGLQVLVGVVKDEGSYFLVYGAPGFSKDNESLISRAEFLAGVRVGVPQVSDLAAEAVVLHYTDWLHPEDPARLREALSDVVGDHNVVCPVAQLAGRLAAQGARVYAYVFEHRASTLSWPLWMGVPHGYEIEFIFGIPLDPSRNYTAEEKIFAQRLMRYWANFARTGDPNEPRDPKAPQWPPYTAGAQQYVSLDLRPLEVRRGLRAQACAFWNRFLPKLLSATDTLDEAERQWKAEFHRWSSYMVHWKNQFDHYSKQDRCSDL
T4 sequence (P10635 whole entry): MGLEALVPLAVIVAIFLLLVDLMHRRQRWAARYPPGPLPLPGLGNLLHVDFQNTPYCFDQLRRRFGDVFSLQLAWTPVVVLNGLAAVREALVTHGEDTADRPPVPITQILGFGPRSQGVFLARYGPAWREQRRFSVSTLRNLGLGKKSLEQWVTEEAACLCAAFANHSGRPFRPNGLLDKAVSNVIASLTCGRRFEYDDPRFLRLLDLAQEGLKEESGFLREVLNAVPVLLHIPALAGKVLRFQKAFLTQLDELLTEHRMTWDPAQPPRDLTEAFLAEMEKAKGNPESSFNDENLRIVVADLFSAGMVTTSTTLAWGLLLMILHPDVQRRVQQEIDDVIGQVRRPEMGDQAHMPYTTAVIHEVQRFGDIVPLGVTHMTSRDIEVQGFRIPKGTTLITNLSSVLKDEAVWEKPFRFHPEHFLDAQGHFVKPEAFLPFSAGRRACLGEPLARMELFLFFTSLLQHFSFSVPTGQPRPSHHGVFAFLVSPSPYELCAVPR

SMILES	inhibition at 10 µM ([1]; 10 µM concentration) [%]	% of ABTS• reduction ± SD ([2]; 30 µM, 5 min) [%]	% of ABTS• reduction ± SD ([2]; 30 µM, 30 min) [%]	% of ABTS• reduction ± SD ([2]; 30 µM, 60 min) [%]	% of ABTS• reduction ± SD ([2]; 75 µM, 5 min) [%]	% of ABTS• reduction ± SD ([2]; 75 µM, 30 min) [%]	% of ABTS• reduction ± SD ([2]; 75 µM, 60 min) [%]	% of ABTS• reduction ± SD ([2]; 150 µM, 5 min) [%]	% of ABTS• reduction ± SD ([2]; 150 µM, 30 min) [%]	% of ABTS• reduction ± SD ([2]; 150 µM, 60 min) [%]	inhibition at 10 µM ([3]; 10 µM concentration) [%]	Ki [4] [nM]	IC50 [1] [nM]	main metabolic pathway [5]	HLMs % Left ([5]; human, 2 h, pH 7.4) [%]	IC50 [3]	MLMs % Left [6] [%]	inhibition at 0.1 µM [7] [%]	effects on cognition [8]
O=c1[nH]c2c(OCCNCC3CCN(Cc4ccccc4)CC3)cccc2n1Cc1ccccc1 [Compound 17, 1-Benzyl-4-(2-(((1-benzylpiperidin-4-yl)methyl)amino)ethoxy)-1,3-dihydro-2H-benzo[d]imidazol-2-one]	39.5	8±2	14±3	18±4	12±2	22±2	27±1	19±2	32±2	39±2	44.3	136 ± 22	–	–	–	–	–	–	–
O=S(=O)(c1ccccc1)N1CCc2c(OCCNCCCC3CCN(Cc4ccccc4)CC3)cccc21 [Compound 16, 3-(1-Benzylpiperidin-4-yl)-N-(2-((1-(phenylsulfonyl)indolin-4-yl)oxy)ethyl)propan-1-amine]	–	7±0	7±1	7±1	7±2	9±2	11±3	10±0	19±1	24±1	–	598 ± 19	821 ± 14	oxidative deamination	84.40	487 ± 12 nM	84.48	~20	–
O=S(=O)(c1ccccc1)n1ccc2c(OCCNCC3CCN(Cc4ccccc4)CC3)cccc21 [Compound 12, N-((1-Benzylpiperidin-4-yl)methyl)-2-((1-(phenylsulfonyl)-1H-indol-4-yl)oxy)ethan-1-amine]	–	8±1	9±0	10±0	13±0	19±0	24±1	20±3	30±3	39±4	–	21 ± 1	3150 ± 81	–	–	2300 nM and 2320 nM	–	–	–
O=S(=O)(c1ccccc1)c1cnc2c(N3CCNCC3)cccc2c1 [intepirdine]	–	–	–	–	–	–	–	–	–	–	–	–	–	–	–	–	–	–	positive effects on cognition
